Our source for the Control values is ChEMBL document CHEMBL1150014, “DISCOVERY OF A NOVEL CLASS OF BK CHANNEL OPENERS: ENANTIOSPECIFIC SYNTHESIS AND BK CHANNEL OPENING ACTIVITY OF 3-(5-CHLORO-2-HYDROXYPHENYL)-1,3-DIHYDRO-3-HYDROXY-6-(TRIFLUOROMETHYL)-2H-INDOL-2-ONE” (Bioorg Med Chem Lett, 1997).

Molecules are shown by their SMILES.

Common to all, as to assay type: functional
Experiment [1] addresses Calcium-activated potassium channel subunit alpha-1 (Mus musculus) (UniProt Q08460). Description: Effect on outward K+ current using two-electrode voltage clamp recording from Xenopus laevis oocyte expressing cloned mSlo at 20 uM.
Experiment [2] shares this target. The experiment is described as follows: Effect on outward K+ current using two-electrode voltage clamp recording from Xenopus laevis oocyte expressing cloned mSlo at 30 uM.
Experiment [3] addresses Calcium-activated potassium channel subunit alpha-1 (Homo sapiens) (UniProt Q12791). The experiment is described as follows: Effect on outward K+ current using two-electrode voltage clamp recording from Xenopus laevis oocyte expressing cloned hSlo at 20 uM. (In general: Two-electrode voltage clamp holds a large cell at a set potential and records current.)

Chain of Calcium-activated potassium channel subunit alpha-1 (Mus musculus) (Q08460 whole entry): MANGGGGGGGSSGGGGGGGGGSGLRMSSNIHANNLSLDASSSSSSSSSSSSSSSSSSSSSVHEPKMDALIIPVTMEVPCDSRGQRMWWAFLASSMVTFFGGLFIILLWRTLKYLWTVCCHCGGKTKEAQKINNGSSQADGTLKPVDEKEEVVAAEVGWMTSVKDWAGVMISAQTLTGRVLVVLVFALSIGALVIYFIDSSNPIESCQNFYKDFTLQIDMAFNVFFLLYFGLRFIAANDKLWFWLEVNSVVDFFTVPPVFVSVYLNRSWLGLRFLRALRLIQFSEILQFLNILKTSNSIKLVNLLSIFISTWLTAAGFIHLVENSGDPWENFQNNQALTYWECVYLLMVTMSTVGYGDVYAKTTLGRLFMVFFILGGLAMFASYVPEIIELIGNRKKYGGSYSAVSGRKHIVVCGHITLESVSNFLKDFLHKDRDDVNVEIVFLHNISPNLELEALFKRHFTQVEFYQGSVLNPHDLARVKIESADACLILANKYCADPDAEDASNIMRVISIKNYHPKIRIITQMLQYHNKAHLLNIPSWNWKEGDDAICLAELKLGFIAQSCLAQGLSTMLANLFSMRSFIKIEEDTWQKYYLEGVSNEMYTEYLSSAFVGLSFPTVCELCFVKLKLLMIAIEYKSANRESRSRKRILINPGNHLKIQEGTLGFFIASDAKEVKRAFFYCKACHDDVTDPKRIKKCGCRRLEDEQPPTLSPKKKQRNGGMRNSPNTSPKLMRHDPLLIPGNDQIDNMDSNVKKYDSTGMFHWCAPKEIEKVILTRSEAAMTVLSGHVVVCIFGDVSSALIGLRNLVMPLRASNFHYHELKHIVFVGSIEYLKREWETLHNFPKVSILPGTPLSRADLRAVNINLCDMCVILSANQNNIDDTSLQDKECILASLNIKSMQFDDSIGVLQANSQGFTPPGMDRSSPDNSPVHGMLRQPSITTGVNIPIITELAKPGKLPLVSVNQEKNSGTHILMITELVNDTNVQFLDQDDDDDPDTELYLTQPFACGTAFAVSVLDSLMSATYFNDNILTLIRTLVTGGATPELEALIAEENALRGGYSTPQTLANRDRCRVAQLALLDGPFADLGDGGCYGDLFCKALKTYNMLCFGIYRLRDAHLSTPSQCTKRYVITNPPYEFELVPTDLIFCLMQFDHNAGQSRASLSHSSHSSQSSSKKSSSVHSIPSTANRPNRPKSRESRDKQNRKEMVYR
Chain of Calcium-activated potassium channel subunit alpha-1 (Homo sapiens) (Q12791 whole entry): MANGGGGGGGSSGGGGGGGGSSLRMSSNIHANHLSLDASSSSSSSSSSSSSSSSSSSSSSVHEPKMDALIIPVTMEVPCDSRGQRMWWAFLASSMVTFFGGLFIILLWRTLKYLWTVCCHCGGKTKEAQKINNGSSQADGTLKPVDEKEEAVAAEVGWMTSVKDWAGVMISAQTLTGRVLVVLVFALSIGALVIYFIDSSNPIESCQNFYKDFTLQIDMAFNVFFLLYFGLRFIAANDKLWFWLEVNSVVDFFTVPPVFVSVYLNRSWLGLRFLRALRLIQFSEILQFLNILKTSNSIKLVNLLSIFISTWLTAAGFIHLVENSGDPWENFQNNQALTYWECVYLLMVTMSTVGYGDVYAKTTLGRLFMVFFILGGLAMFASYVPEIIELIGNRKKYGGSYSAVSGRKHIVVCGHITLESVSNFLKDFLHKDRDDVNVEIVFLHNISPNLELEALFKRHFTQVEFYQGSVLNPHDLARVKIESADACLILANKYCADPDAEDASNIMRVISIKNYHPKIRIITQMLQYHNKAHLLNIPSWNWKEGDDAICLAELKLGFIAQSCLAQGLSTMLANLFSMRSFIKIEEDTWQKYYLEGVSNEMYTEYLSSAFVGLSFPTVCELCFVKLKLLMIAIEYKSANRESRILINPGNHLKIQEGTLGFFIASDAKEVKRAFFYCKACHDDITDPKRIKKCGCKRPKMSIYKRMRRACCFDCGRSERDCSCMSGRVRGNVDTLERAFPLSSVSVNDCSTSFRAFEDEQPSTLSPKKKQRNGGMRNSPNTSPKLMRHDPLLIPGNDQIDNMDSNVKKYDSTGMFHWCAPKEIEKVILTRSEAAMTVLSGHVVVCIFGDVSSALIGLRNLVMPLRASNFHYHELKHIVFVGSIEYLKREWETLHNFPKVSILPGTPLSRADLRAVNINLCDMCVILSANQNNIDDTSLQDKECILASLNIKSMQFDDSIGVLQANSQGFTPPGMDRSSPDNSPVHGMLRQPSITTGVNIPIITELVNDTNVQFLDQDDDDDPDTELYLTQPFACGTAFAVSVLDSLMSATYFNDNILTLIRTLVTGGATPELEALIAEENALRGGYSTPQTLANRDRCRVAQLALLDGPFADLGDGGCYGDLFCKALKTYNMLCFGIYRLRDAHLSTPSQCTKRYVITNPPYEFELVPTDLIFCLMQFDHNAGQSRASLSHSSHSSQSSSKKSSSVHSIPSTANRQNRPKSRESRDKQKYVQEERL

As to `O=c1[nH]c2cc(C(F)(F)F)ccc2n1-c1cc(Cl)ccc1O`, the Control in experiment [1] was 132%; in experiment [2] it was 148%.
With `COc1ccc(Cl)cc1C1(O)C(=O)Nc2cc(C(F)(F)F)ccc21` (racemic), the Control in experiment [3] turned out to be 120%.
Regarding `O=C1Nc2cc(C(F)(F)F)ccc2C1(O)c1cc(Cl)ccc1O` (racemic), the Control was found to be 131% in experiment [1] and 201% in experiment [2].
On to `O=C1Nc2cc(C(F)(F)F)ccc2C1(O)c1cccc(Cl)c1` (racemic), for which the Control in experiment [3] stood at 96.7%.
For the compound `O=C1Nc2cc(C(F)(F)F)ccc2C1(O)c1ccccc1O` (racemic), in experiment [1], the Control stood at 90.4%.
Still for that read-out and setting: then `O=C1Nc2ccccc2C1(O)c1cc(Cl)ccc1O` (racemic), with 95.3%.
As for `COc1ccc(Cl)cc1[C@]1(O)C(=O)Nc2cc(C(F)(F)F)ccc21` (stereo in doubt; (+)-4c), the Control in experiment [3] stood at 117%.
For `O=C1Nc2cc(C(F)(F)F)ccc2[C@@]1(O)c1cc(Cl)ccc1O` (stereo in doubt; (+)-4e), the Control in experiment [1] was 124%.
For `COc1ccc(Cl)cc1[C@]1(O)C(=O)Nc2cc(C(F)(F)F)ccc21` (stereo in doubt; (-)-4c), the Control in experiment [3] was determined as 116%.
For `O=C1Nc2cc(C(F)(F)F)ccc2[C@@]1(O)c1cc(Cl)ccc1O` (stereo in doubt; (-)-4e), the Control in experiment [1] is 141%.
